Source: publication PMC8079033, “Design, synthesis, anticancer evaluation, and molecular modelling studies of novel tolmetin derivatives as potential VEGFR-2 inhibitors and apoptosis inducers” (Journal of Enzyme Inhibition and Medicinal Chemistry, 2021)

Tests used:
SR = experiment: NCI 60-cell line one-dose antiproliferative screen (SRB); format: cell-based; settings: Homo sapiens, read-out: growth inhibition % (GI%)
Procedure: (§1) Anticancer activity screening of the newly synthesised compounds was measured in vitro utilising 60 different human tumour cell lines provided by US National Cancer Institute according to previously reported standard procedure[41–43] as follows: Cells are inoculated into 96-well microtiter plates in 100 ml. After cell inoculation, the microtiter plates are incubated at 37 °C, 5% CO2, 95% air, and 100% relative humidity for 24 h prior to addition of experimental compounds. After 24 h, two plates of each cell line are fixed in situ with TCA, to represent a measurement of the cell population for each cell line at the time of compound addition (Tz). Experimental compounds are solubilised in dimethyl sulfoxide at 400-fold the desired final maximum test concentration and stored frozen prior to use. At the time of compound addition, an aliquot of frozen concentrate is thawed and diluted to twice the desired final maximum test concentration with a complete medium containing […] gentamicin. Aliquots of […] of the compounds dilutions are added to the appropriate microtiter wells already containing 100 ml of medium, resulting in the required final compound concentration. Following compound addition, the plates are incubated for an additional 48 h at 37 °C, 5% CO2, 95% air, and 100% relative humidity. For adherent cells, the assay is terminated by the addition of cold trichloroacetic acid (TCA). Cells are fixed in situ by the gentle addition of 50 ml of cold 50% (w/v) TCA (final concentration, 10% TCA) and incubated for […] at 4 °C. The supernatant is discarded, and the plates are washed five times with tap water and air-dried. Sulforhodamine B (SRB) solution (100 ml) at 0.4% (w/v) in 1% acetic acid is added to each well, and plates are incubated for 10 min at room temperature. After staining, the unbound dye is removed by washing five times with 1% acetic acid and the plates are air-dried. The bound stain is subsequently solubilised with a 10 mM trizma base, and the absorbance is read on an automated plate reader at a wavelength of 515 nm. For suspension cells, the methodology is the same except that the assay is terminated by fixing settled cells at the bottom of the wells by gently adding 50 ml of 80% TCA (final concentration, 16% TCA). Using the absorbance measurements [time zero, (Tz), control growth, (C), and test growth in the presence of compound (Ti)], the percentage growth is calculated for each compound. The One-dose data are reported as a mean graph of the percent growth of treated cells. The reported number is growth relative to the no-compound control, and relative to the time zero number of cells. This allows the detection of both growth inhibition and lethality.
(§2) Fifteen newly synthesised compounds were tested for their in vitro antiproliferative activity by the National Cancer Institute (NCI), Maryland, USA[50], under the Developmental Therapeutic Program (DTP)[41]^,[43]^,[51]^,[52]. The tested compounds were evaluated at a concentration of 10 µM on a panel of 60 tumour cell lines representing leukaemia and non-small cell lung, colon, CNS, melanoma, ovarian, renal, prostate, and breast cancers. The antiproliferative activity was presented by the NCI as percent growth of the treated cells and is presented in Table 1 as growth inhibition percentage (GI%) achieved by the tested compounds.

HCT-116 = experiment: as above; format: cell-based; settings: Homo sapiens, read-out: growth inhibition % (GI%)
Procedure: as §1, §2

NCI-H226 = experiment: as above; format: cell-based; settings: Homo sapiens, read-out: growth inhibition % (GI%)
Procedure: as §1, §2

SK-OV-3 = experiment: as above; format: cell-based; settings: Homo sapiens, read-out: growth inhibition % (GI%)
Procedure: as §1, §2

K-562 = experiment: as above; format: cell-based; settings: Homo sapiens, K562, read-out: growth inhibition % (GI%)
Procedure: as §1, §2

SNB-19 = experiment: as above; format: cell-based; settings: Homo sapiens, read-out: growth inhibition % (GI%)
Procedure: as §1, §2

UACC-257 = experiment: as above; format: cell-based; settings: Homo sapiens, read-out: growth inhibition % (GI%)
Procedure: as §1, §2

MCF7 = experiment: as above; format: cell-based; settings: Homo sapiens, read-out: growth inhibition % (GI%)
Procedure: as §1, §2

MDA-MB-231/ATCC = experiment: as above; format: cell-based; settings: Homo sapiens, read-out: growth inhibition % (GI%)
Procedure: as §1, §2

ACHN = experiment: as above; format: cell-based; settings: Homo sapiens, read-out: growth inhibition % (GI%)
Procedure: as §1, §2

HL-60 (TB) = experiment: as above; format: cell-based; settings: Homo sapiens, read-out: growth inhibition % (GI%)
Procedure: as §1, §2

SN 12 C = experiment: as above; format: cell-based; settings: Homo sapiens, SN12C, read-out: growth inhibition % (GI%)
Procedure: as §1, §2

MOLT-4 = experiment: as above; format: cell-based; settings: Homo sapiens, read-out: growth inhibition % (GI%)
Procedure: as §1, §2

SF-539 = experiment: as above; format: cell-based; settings: Homo sapiens, read-out: growth inhibition % (GI%)
Procedure: as §1, §2

OVCAR-5 = experiment: as above; format: cell-based; settings: Homo sapiens, read-out: growth inhibition % (GI%)
Procedure: as §1, §2

HOP-62 = experiment: as above; format: cell-based; settings: Homo sapiens, read-out: growth inhibition % (GI%)
Procedure: as §1, §2

RPMI-8226 = experiment: as above; format: cell-based; settings: Homo sapiens, read-out: growth inhibition % (GI%)
Procedure: as §1, §2

UACC-62 = experiment: as above; format: cell-based; settings: Homo sapiens, read-out: growth inhibition % (GI%)
Procedure: as §1, §2

SW-620 = experiment: as above; format: cell-based; settings: Homo sapiens, read-out: growth inhibition % (GI%)
Procedure: as §1, §2

PC-3 = experiment: as above; format: cell-based; settings: Homo sapiens, read-out: growth inhibition % (GI%)
Procedure: as §1, §2

EKVX = experiment: as above; format: cell-based; settings: Homo sapiens, read-out: growth inhibition % (GI%)
Procedure: as §1, §2

KM12 = experiment: as above; format: cell-based; settings: Homo sapiens, read-out: growth inhibition % (GI%)
Procedure: as §1, §2

OVCAR-4 = experiment: as above; format: cell-based; settings: Homo sapiens, read-out: growth inhibition % (GI%)
Procedure: as §1, §2

UO-31 = experiment: as above; format: cell-based; settings: Homo sapiens, read-out: growth inhibition % (GI%)
Procedure: as §1, §2

U251 = experiment: as above; format: cell-based; settings: Homo sapiens, U-251, read-out: growth inhibition % (GI%)
Procedure: as §1, §2

786-0 = experiment: as above; format: cell-based; settings: Homo sapiens, read-out: growth inhibition % (GI%)
Procedure: as §1, §2

HOP-92 = experiment: as above; format: cell-based; settings: Homo sapiens, read-out: growth inhibition % (GI%)
Procedure: as §1, §2

LOX IMVI = experiment: as above; format: cell-based; settings: Homo sapiens, read-out: growth inhibition % (GI%)
Procedure: as §1, §2

CAKI-1 = experiment: as above; format: cell-based; settings: Homo sapiens, read-out: growth inhibition % (GI%)
Procedure: as §1, §2

HCT-15 = experiment: as above; format: cell-based; settings: Homo sapiens, read-out: growth inhibition % (GI%)
Procedure: as §1, §2

NCI-H460 = experiment: as above; format: cell-based; settings: Homo sapiens, read-out: growth inhibition % (GI%)
Procedure: as §1, §2

A549/ATCC = experiment: as above; format: cell-based; settings: Homo sapiens, read-out: growth inhibition % (GI%)
Procedure: as §1, §2

MALME-3M = experiment: as above; format: cell-based; settings: Homo sapiens, read-out: growth inhibition % (GI%)
Procedure: as §1, §2

T-47D = experiment: as above; format: cell-based; settings: Homo sapiens, T47D, read-out: growth inhibition % (GI%)
Procedure: as §1, §2

SF-295 = experiment: as above; format: cell-based; settings: Homo sapiens, read-out: growth inhibition % (GI%)
Procedure: as §1, §2

SNB-75 = experiment: as above; format: cell-based; settings: Homo sapiens, read-out: growth inhibition % (GI%)
Procedure: as §1, §2

NCI/ADR-RES = experiment: as above; format: cell-based; settings: Homo sapiens, read-out: growth inhibition % (GI%)
Procedure: as §1, §2

A498 = experiment: as above; format: cell-based; settings: Homo sapiens, read-out: growth inhibition % (GI%)
Procedure: as §1, §2

SK-MEL-5 = experiment: as above; format: cell-based; settings: Homo sapiens, read-out: growth inhibition % (GI%)
Procedure: as §1, §2

NCI-H522 = experiment: as above; format: cell-based; settings: Homo sapiens, read-out: growth inhibition % (GI%)
Procedure: as §1, §2

NCI-H23 = experiment: as above; format: cell-based; settings: Homo sapiens, read-out: growth inhibition % (GI%)
Procedure: as §1, §2

IGROV1 = experiment: as above; format: cell-based; settings: Homo sapiens, IGROV-1, read-out: growth inhibition % (GI%)
Procedure: as §1, §2

HS 578 T = experiment: as above; format: cell-based; settings: Homo sapiens, read-out: growth inhibition % (GI%)
Procedure: as §1, §2

SF-268 = experiment: as above; format: cell-based; settings: Homo sapiens, read-out: growth inhibition % (GI%)
Procedure: as §1, §2

OVCAR-8 = experiment: as above; format: cell-based; settings: Homo sapiens, read-out: growth inhibition % (GI%)
Procedure: as §1, §2

## Cc1ccc(C(=O)c2ccc(CC(=O)NN=Cc3cc4ccccc4[nH]3)n2C)cc1 [Compound 5e, N′-((1H-Indol-2-yl)methylene)-2–(1-methyl-5–(4-methylbenzoyl)-1H-pyrrol-2-yl) acetohydrazide]
other
  melting point: 198 to 200 °C
SR
  inhibition at 10 µM: < 10%
HCT-116
  inhibition at 10 µM: < 10%
NCI-H226
  inhibition at 10 µM: 15.3%
SK-OV-3
  inhibition at 10 µM: 12.1%
K-562
  inhibition at 10 µM: < 10%
SNB-19
  inhibition at 10 µM: 17.3%
UACC-257
  inhibition at 10 µM: < 10%
MCF7
  inhibition at 10 µM: 22.1%
MDA-MB-231/ATCC
  inhibition at 10 µM: 20.5%
ACHN
  inhibition at 10 µM: < 10%
HL-60 (TB)
  inhibition at 10 µM: < 10%
SN 12 C
  inhibition at 10 µM: 10.5%
MOLT-4
  inhibition at 10 µM: < 10%
SF-539
  inhibition at 10 µM: < 10%
OVCAR-5
  inhibition at 10 µM: < 10%
HOP-62
  inhibition at 10 µM: 24%
RPMI-8226
  inhibition at 10 µM: < 10%
UACC-62
  inhibition at 10 µM: 15.8%
SW-620
  inhibition at 10 µM: < 10%
PC-3
  inhibition at 10 µM: 10.9%
EKVX
  inhibition at 10 µM: 25.7%
KM12
  inhibition at 10 µM: < 10%
OVCAR-4
  inhibition at 10 µM: 19.3%
UO-31
  inhibition at 10 µM: 40.4%
U251
  inhibition at 10 µM: < 10%
786-0
  inhibition at 10 µM: < 10%
HOP-92
  inhibition at 10 µM: 10.3%
LOX IMVI
  inhibition at 10 µM: 10.7%
CAKI-1
  inhibition at 10 µM: 15.8%
HCT-15
  inhibition at 10 µM: 12.6%
NCI-H460
  inhibition at 10 µM: < 10%
A549/ATCC
  inhibition at 10 µM: < 10%
MALME-3M
  inhibition at 10 µM: < 10%
T-47D
  inhibition at 10 µM: 29.4%
SF-295
  inhibition at 10 µM: < 10%
SNB-75
  inhibition at 10 µM: 15.3%
NCI/ADR-RES
  inhibition at 10 µM: < 10%
A498
  inhibition at 10 µM: 10.9%
SK-MEL-5
  inhibition at 10 µM: < 10%
NCI-H522
  inhibition at 10 µM: 18.9%
NCI-H23
  inhibition at 10 µM: 15.4%
IGROV1
  inhibition at 10 µM: 45.5%
HS 578 T
  inhibition at 10 µM: < 10%
SF-268
  inhibition at 10 µM: < 10%
OVCAR-8
  inhibition at 10 µM: < 10%
